What all share (type): physicochemical
Data set [1] is described as follows: Solvent solubility (butyl acetate, toluene or PGMEA). To be noted: 25° C. On the procedure: In a test tube, 0.1 g of the synthesized photoacid generator was placed, and an organic solvent (butyl acetate, toluene or PGMEA) was added thereto in 0.2 g portions under a condition where the temperature was adjusted to 25° C. until the photoacid generator was completely dissolved. In this connection, in the case where the photoacid generator was not completely dissolved even when 20 g of the solvent was added, the photoacid generator was evaluated as one that was not dissolved.

Data set [2] is described as follows: Thermal decomposition temperature (TG/DTA, 2% weight reduction). Conditions: point of 2% weight reduction; 10° C./minute from 30° C. to 500° C.; nitrogen atmosphere. Here is the method: The synthesized photoacid generator was measured for the change in weight under a temperature increasing condition of 10° C./minute from 30° C. to 500° C. under a nitrogen atmosphere using a thermal gravimetric/differential thermal analyzer (TG/DTA 6200, available from Seiko Instruments Inc.), and a point where the weight was reduced by 2% was defined as the thermal decomposition temperature.

The nature of data set [3]: Molar extinction coefficient of i-line (365 nm), UV-visible absorbance in acetonitrile. Conditions: 0.25 mmol/L in acetonitrile, cell length 1 cm. On the procedure:
The synthesized photoacid generator was diluted to 0.25 mmol/L with acetonitrile, and using an ultraviolet-visible spectrophotometer (UV-2550 available from SHIMADZU CORPORATION), the absorbance in a range of 200 nm to 500 nm was measured with a cell having an optical path length (a cell length) of 1 cm. The molar extinction coefficient of i-line (365 nm) (ε365) was calculated from the following equation.
[In the equation, […] represents the absorbance at 365 nm.]

Consider `O=C1c2cc(C34CC5CC(CC(C5)C3)C4)cc3cc(C45CC6CC(CC(C6)C4)C5)cc(c23)C(=O)N1OS(=O)(=O)C(F)(F)F` [Example A-15, 3,6-diadamantyl-1,8-naphthalimide trifluoromethanesulfonate], for which, in data set [1], the “Solvent solubility PGMEA” value was 7 wt %, the “Solvent solubility Butyl acetate” value was 7.5 wt % and the “Solvent solubility Toluene” value is given as 8.5 wt %. The compound further gave a Thermal decomposition temperature in data set [2] of 250 °C. Besides, the Molar extinction coefficient in data set [3] was determined as 6000 L/mol/cm.
The like results for `O=C1c2cccc3c(C(F)(F)C(F)(F)C(F)(F)C(F)(F)F)ccc(c23)C(=O)N1OS(=O)(=O)C(F)(F)F` [Example A-16, 4-(nonafluorobutyl)-1,8-naphthalimide trifluoromethanesulfonate] were, in that order, 22 wt %, 25 wt %, 28 wt %, 239 °C and 40 L/mol/cm.
In the case of `O=C1c2cccc3c(C(F)(F)C(F)(F)C(F)(F)C(F)(F)C(F)(F)C(F)(F)C(F)(F)C(F)(F)F)ccc(c23)C(=O)N1OS(=O)(=O)C(F)(F)F` [Example A-17, 4-(heptadecafluoro-n-octyl)-1,8-naphthalimide trifluoromethanesulfonate], in data set [1], the “Solvent solubility PGMEA” value is over 30 wt %, the “Solvent solubility Butyl acetate” value is over 30 wt % and the “Solvent solubility Toluene” value was over 30 wt %. Further, the Thermal decomposition temperature in data set [2] came out at 242 °C. The Molar extinction coefficient in data set [3] amounted to 80 L/mol/cm.
As for `C[Si](C)(C)c1ccc2c3c(cccc13)C(=O)N(OS(=O)(=O)C(F)(F)F)C2=O` [Example A-18, 4-trimethylsilyl-1,8-naphthalimide trifluoromethanesulfonate], in data set [1], the “Solvent solubility PGMEA” value was 8 wt %, the “Solvent solubility Butyl acetate” value worked out at 7.5 wt % and the “Solvent solubility Toluene” value is listed as 9 wt %. In data set [2], this compound yielded a Thermal decomposition temperature of 240 °C. This compound also registered a Molar extinction coefficient in data set [3] of 5500 L/mol/cm.
For `O=C1c2cccc3c(Cl)ccc(c23)C(=O)N1OS(=O)(=O)C(F)(F)F` [Example A-19, 4-chloro-1,8-naphthalimide trifluoromethanesulfonate], in data set [1], the “Solvent solubility PGMEA” value amounted to 6 wt %, the “Solvent solubility Butyl acetate” value worked out at 5 wt % and the “Solvent solubility Toluene” value is on record as 10 wt %. In data set [2], this compound came in with a Thermal decomposition temperature of 220 °C. In data set [3], this compound had a Molar extinction coefficient of 6000 L/mol/cm.
The like results for `O=C1c2cccc3c(Br)ccc(c23)C(=O)N1OS(=O)(=O)C(F)(F)F` [Example A-20, 4-bromo-1,8-naphthalimide trifluoromethanesulfonate] were, in that order, 4 wt %, 4.5 wt %, 8 wt %, 230 °C and 8500 L/mol/cm.
The like results for `CC(C)Oc1ccc2c3c(cccc13)C(=O)N(OS(=O)(=O)c1c(F)c(F)c(F)c(F)c1F)C2=O` [Example A-21, 4-isopropoxy-1,8-naphthalimide pentafluorobenzenesulfonate] were, in that order, 4.5 wt %, 4 wt %, 3.5 wt %, 236 °C and 16300 L/mol/cm.
The like results for `CCCOc1ccc2c3c(cccc13)C(=O)N(OS(=O)(=O)c1c(F)c(F)c(F)c(F)c1F)C2=O` [Example A-22, 4-n-propoxy-1,8-naphthalimide pentafluorobenzenesulfonate] were, in that order, 3 wt %, 3.5 wt %, 6 wt %, 240 °C and 14000 L/mol/cm.
With `O=C1c2cccc3c(OCC(F)(F)C(F)F)ccc(c23)C(=O)N1OS(=O)(=O)c1c(F)c(F)c(F)c(F)c1F` [Example A-23, 4-(2,2,3,3-tetrafluoro-1-propoxy)-1,8-naphthalimide pentafluorobenzenesulfonate], in data set [1], the “Solvent solubility PGMEA” value is listed as 7 wt %, the “Solvent solubility Butyl acetate” value is given as 7.5 wt % and the “Solvent solubility Toluene” value came out at 10 wt %. In data set [2], the Thermal decomposition temperature was 232 °C. The same compound came in with a Molar extinction coefficient in data set [3] of 12000 L/mol/cm.
The like results for `O=C(Cc1ccccc1)c1ccc2c3c(cccc13)C(=O)N(OS(=O)(=O)c1c(F)c(F)c(F)c(F)c1F)C2=O` [Example A-24, 4-phenylacetyl-1,8-naphthalimide pentafluorobenzenesulfonate] were, in that order, 3.2 wt %, 3.5 wt %, 5.5 wt %, 242 °C and 3000 L/mol/cm.
As to `O=C1c2cccc3c(Oc4c(F)c(F)c(F)c(F)c4F)ccc(c23)C(=O)N1OS(=O)(=O)c1c(F)c(F)c(F)c(F)c1F` [Example A-25, 4-pentafluorophenoxy-1,8-naphthalimide pentafluorobenzenesulfonate], in data set [1], the “Solvent solubility PGMEA” value worked out at 11 wt %, the “Solvent solubility Butyl acetate” value amounted to 14 wt % and the “Solvent solubility Toluene” value worked out at 13 wt %. In data set [2], the Thermal decomposition temperature amounted to 247 °C. In data set [3], this compound yielded a Molar extinction coefficient of 12000 L/mol/cm.
For the compound `O=C1c2cccc3c(Oc4cccc(C(F)(F)F)c4)ccc(c23)C(=O)N1OS(=O)(=O)c1c(F)c(F)c(F)c(F)c1F` [Example A-26, 4-(3-trifluoromethylphenoxy)-1,8-naphthalimide pentafluorobenzenesulfonate], in data set [1], the “Solvent solubility PGMEA” value is 9 wt %, the “Solvent solubility Butyl acetate” value is given as 11 wt % and the “Solvent solubility Toluene” value was found to be 10 wt %. In data set [2], this compound displayed a Thermal decomposition temperature of 241 °C. The compound further registered a Molar extinction coefficient in data set [3] of 16000 L/mol/cm.
The like results for `O=C1c2cccc3c(Sc4ccccc4)ccc(c23)C(=O)N1OS(=O)(=O)c1c(F)c(F)c(F)c(F)c1F` [Example A-27, 4-phenylthio-1,8-naphthalimide pentafluorobenzenesulfonate] were, in that order, 4 wt %, 5.5 wt %, 5.5 wt %, 242 °C and 20000 L/mol/cm.
The like results for `COc1cc2c3c(cccc3c1)C(=O)N(OS(=O)(=O)c1c(F)c(F)c(F)c(F)c1F)C2=O` [Example A-28, 3-methoxy-1,8-naphthalimide pentafluorobenzenesulfonate] were, in that order, 5 wt %, 6.5 wt %, 6 wt %, 240 °C and 7500 L/mol/cm.
For `CCCCC(CC)C(=O)Oc1cc2c3c(cccc3c1)C(=O)N(OS(=O)(=O)c1c(F)c(F)c(F)c(F)c1F)C2=O` (stereo not drawn) [Example A-29, 3-(2-ethylhexanoyloxy)-1,8-naphthalimide pentafluorobenzenesulfonate], in data set [1], the “Solvent solubility PGMEA” value amounted to 18 wt %, the “Solvent solubility Butyl acetate” value is 25 wt % and the “Solvent solubility Toluene” value is recorded as 23 wt %. Also, the Thermal decomposition temperature in data set [2] was found to be 230 °C. For the same compound, the Molar extinction coefficient in data set [3] was 1500 L/mol/cm.
As to `CCCC(=O)Oc1cc2c3c(cccc3c1)C(=O)N(OS(=O)(=O)c1c(F)c(F)c(F)c(F)c1F)C2=O` [Example A-30, 3-butyroyloxy-1,8-naphthalimide pentafluorobenzenesulfonate], in data set [1], the “Solvent solubility PGMEA” value came to 14 wt %, the “Solvent solubility Butyl acetate” value is 18 wt % and the “Solvent solubility Toluene” value amounted to 20 wt %. In data set [2], this compound returned a Thermal decomposition temperature of 235 °C. This compound also had a Molar extinction coefficient in data set [3] of 1600 L/mol/cm.
The like results for `O=C(Oc1cc2c3c(cccc3c1)C(=O)N(OS(=O)(=O)c1c(F)c(F)c(F)c(F)c1F)C2=O)c1ccccc1` [Example A-31, 3-benzoyloxy-1,8-naphthalimide pentafluorobenzenesulfonate] were, in that order, 16 wt %, 20 wt %, 18 wt %, 243 °C and 1400 L/mol/cm.
As to `O=C(Oc1cc2c3c(cccc3c1)C(=O)N(OS(=O)(=O)c1c(F)c(F)c(F)c(F)c1F)C2=O)c1c(F)c(F)c(F)c(F)c1F` [Example A-32, 3-pentafluorobenzoyloxy-1,8-naphthalimide pentafluorobenzenesulfonate], in data set [1], the “Solvent solubility PGMEA” value worked out at 19 wt %, the “Solvent solubility Butyl acetate” value was 24 wt % and the “Solvent solubility Toluene” value was 22 wt %. The Thermal decomposition temperature in data set [2] worked out at 244 °C. This compound gave a Molar extinction coefficient in data set [3] of 1300 L/mol/cm.

The values above are taken from patent US20160368879A1, “PHOTOACID GENERATOR, AND RESIN COMPOSITION FOR PHOTOLITHOGRAPHY” (SAN-APRO LTD., priority 2013, published 2016).
